Laboratory results reported in publication PMC9469084, “Unravelling the pharmacokinetics of aflatoxin B1: In vitro determination of Michaelis–Menten constants, intrinsic clearance and the metabolic contribution of CYP1A2 and CYP3A4 in pooled human liver microsomes” (Frontiers in Microbiology, 2022).
“And” between values parts separate entries of the source, which are not always exact repeats. Equal entries are not always repeated. Where two headings read alike, the source gives them in different places. Marks after values point to notes of the source that are not given here.

What was measured:
[1] = cited from earlier work
[2] = test system: human liver microsomes; conditions: cited from earlier work
[3] = molecular target: T1, CYP1A2 (Homo sapiens, UniProt P05177)
T1 sequence (P05177 whole entry): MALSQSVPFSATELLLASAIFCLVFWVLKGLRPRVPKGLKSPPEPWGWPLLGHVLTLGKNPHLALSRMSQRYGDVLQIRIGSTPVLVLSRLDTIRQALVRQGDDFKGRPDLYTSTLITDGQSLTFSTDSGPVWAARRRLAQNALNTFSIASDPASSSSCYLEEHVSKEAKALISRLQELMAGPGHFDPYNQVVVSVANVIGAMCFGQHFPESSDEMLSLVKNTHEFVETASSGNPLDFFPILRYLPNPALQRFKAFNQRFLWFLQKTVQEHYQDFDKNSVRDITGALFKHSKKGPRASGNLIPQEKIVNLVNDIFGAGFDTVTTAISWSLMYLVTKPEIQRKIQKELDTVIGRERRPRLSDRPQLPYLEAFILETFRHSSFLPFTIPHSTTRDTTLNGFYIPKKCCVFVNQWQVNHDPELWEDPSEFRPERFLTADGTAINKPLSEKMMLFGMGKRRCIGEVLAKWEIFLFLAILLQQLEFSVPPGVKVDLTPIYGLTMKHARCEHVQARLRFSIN
Method: (§1) Substrate work solutions of AFB1 were made to achieve sample concentrations from 0.5 μM to 50 μM, for the HLM experiments. For rhCYP an extra AFB1 sample concentration of 100 μM was implemented. HLM (20 mg/ml in 250 mM sucrose) were diluted in 1.15% KCl to achieve a final protein concentration of 0.25 and 0.5 mg/ml in the samples, as based on previous linearity experiments. The stop reagents were those described in 2.1.2.
(§2) For CYP3A4 rhCYP experiments, 50 μl of diluted supersomes at 150 pmol/ml were used instead of HLM, achieving a final concentration of 30 pmol/ml. For CYP1A2 rhCYP experiments, 50 μl of diluted EasyCYP LR bactosomes at 50 pmol/ml were used, achieving a final concentration of 10 pmol/ml.
(§3) The same equipment, settings and procedures were used as explained in Section “LC–MS/MS (linearity experiments).” Data analysis was performed by transferring Targetlynx® data to Microsoft® Excel. Metabolite formation velocity versus substrate concentration figures were plotted with error bars, Sigmaplot version 14.5 was used for determining the Michaelis–Menten constant (Km) and maximum velocity (Vmax) by performing nonlinear regression on the figures. For AFB1 substrate depletion was measured. Nonlinear regression on sigmoidal plots, where the initial depletion rate (kdep) was plotted against AFB1 concentrations on a linear-log plot, was performed using Excel Solver ([Youdim and Dodia, 2010]).
(§4) The CLH,u,int is multiplied by the AAF, leading to an AAF corrected CLH,u,int (CLH,u,int,AAF). The obtained Km and Vmax values of the CYP probes from rhCYPs were used to calculate intersystem extrapolation factors (ISEFs) for both Vmax and CLint (Equations 7 and 8).
(§5) (7) VmaxISEF=Vmax,HLM/Vmax,rhCYP∗CYPabundancepmolP450/mg
(§6) (8) CLintISEF=Vmax,HLM/Km,HLM∗10^−6/Vmax,rhCYP/Km,rhCYP∗10^−6∗CYPabundancepmolP450/mg
(§7) CLH,u,int,AAF values of AFB1 from rhCYP experiments were multiplied with the CLint ISEF, resulting in an ISEF corrected CLH,u,int,AAF (CLH,u,int,AAF,ISEF). […] Equation 10 presents the extrapolation to the whole liver hepatic blood clearance from rhCYP experiments. The hepatic blood clearance (CLH,B) was multiplied by the blood/plasma ratio (B:P) to obtain the whole liver hepatic plasma clearance, CLH,P.
(§8) (10) CLH,BL/h=QH∗fu,b∗CLH,u,int,AAF,ISEF/QH+fu,b∗CLH,u,int,AAF,ISEF
(§9) Next, Km and Vmax experiments were performed in recombinant enzyme systems. […] For AFB1, where substrate depletion was analyzed, kdep was determined for different substrate concentrations in supersomes and bactosomes which was plotted against AFB1 substrate concentrations on a log-scale (Figures 3E,F). By dividing the theoretical maximal kdep by the protein concentration, the CLint was achieved from which the Vmax could be determined ([Youdim and Dodia, 2010]).

[4] = test system: CYP3A4 (MDZ), CYP1A2 (PH); experiment: in vitro; conditions: human, pH 7.4; for microsomal CLint: microsomes
Method: (§10) A 1.15% KCl solution was made in HPLC grade water and stored at 4°C. HLM (20 mg/ml in 250 mM sucrose) were diluted in 1.15% KCl to achieve a final protein concentration of 0.1; 0.25; 0.5; 0.75 and 1 mg/ml in the samples. The stop reagent was made with 300 μl FA, 5,500 μl ACN and Ultrapure water and contained the internal standards (IS; 0.072 μM of CHL and 0.12 μg/ml of ZAN).
(§11) Samples were prepared partially based on [Schelstraete et al. (2019a],[b)]. […] Next, 50 μl of a freshly prepared NADPH.4Na solution was added. After an incubation of 3 min, 50 μl of diluted HLM was added and they were placed back on the thermoshaker TS-100 (Biosan, Geraardsbergen, Belgium) with a rotation speed of 300 rpm and at a temperature of 37°C. After the indicated time (i.e., 5, 10, 20, 30 and 45 min), 25 μl of an ice cold stop reagent with IS, i.e., CHL for CYP probes and ZAN for AFB1, was added. For protein precipitation, 125 μl of TFA was added. Samples were centrifuged at 16,000×g for 20 min at 4°C. The centrifugal filters were discarded and the supernatant was added to 1 ml of a 0.2 M phosphate buffer. Next, 7 ml of ethyl acetate was added in order to perform a liquid–liquid extraction (LLE). Samples were extracted during 20 min on an Agitelec shaker at room temperature. For phase separation, samples were centrifuged at 2,000× g for 10 min. Subsequently, the organic phase was transferred in glass tubes and evaporated under a gentle nitrogen stream at 40°C (±5°C) using a Turbovap (Biotage, Charlotte, United States). After evaporation, samples were kept at −20°C until further analysis. Upon analysis, 250 μl of a 60/40 mobile phase A (MP A; H2O/MeOH/acetic acid (94/5/1, v/v/v) + 5 mM ammonium acetate)/mobile phase B (MP B; H2O/MeOH/acetic acid (2/97/1, v/v/v) + 5 mM ammonium acetate) mixture was added. After thorough vortexing and centrifuging for 10 min at 1,000× g, the samples were transferred to an autosampler vial. An aliquot of 5 μl was injected into the ultrahigh performance liquid chromatography (UPLC) - XEVO TQ-S (LC–MS/MS) equipment using an in-house developed and validated method.
(§12) A Waters Acquity class I UPLC system coupled to a XEVO TQ-S tandem quadrupole mass spectrometer (MS) from Waters (Milford, MA, United States) was used for the detection and quantification. A Charged Surface Hybrid (CSH) C18 column (1.7 μm 2.1 × 100 mm) with Guard column was used for chromatographic separation. The column temperature was set at 30°C; the sample temperature at 10°C. The MP was used at a flow rate of 0.250 ml/min following a gradient program (Table 1). The total duration for a single run was 12 min. The MS was operated in the electrospray positive mode (ESI+) with multiple reaction monitoring (MRM). Source temperature and desolvation temperature were set at 130°C and 200°C. The cone gas flow was set at 150 L/h, the desolvation gas flow at 550 L/h. Data was processed using Masslynx® and Targetlynx® software from Micromass (Manchester, United Kingdom). Data analysis was performed by transferring Targetlynx® data to Microsoft Excel and Sigmaplot version 14.5. For AFB1, substrate depletion was measured. Nonlinear regression on sigmoidal plots where the initial depletion rate (kdep) was plotted against AFB1 concentrations on a linear-log plot, was performed using Excel Solver ([Youdim and Dodia, 2010]).
as §1
(§13) For CYP3A4 rhCYP experiments, 50 μl of diluted supersomes at 150 pmol/ml were used instead of HLM, achieving a final concentration of 30 pmol/ml.

[5] = test system: pooled human liver microsomes; experiment: in vitro
Method: as §10, §11, §12, §1, §13

[6] = human, microsomes
[7] = molecular target: CYP3A4 (Homo sapiens, UniProt P08684); experiment: in vitro
Chain of CYP3A4 (Homo sapiens, UniProt P08684) (P08684 2-503): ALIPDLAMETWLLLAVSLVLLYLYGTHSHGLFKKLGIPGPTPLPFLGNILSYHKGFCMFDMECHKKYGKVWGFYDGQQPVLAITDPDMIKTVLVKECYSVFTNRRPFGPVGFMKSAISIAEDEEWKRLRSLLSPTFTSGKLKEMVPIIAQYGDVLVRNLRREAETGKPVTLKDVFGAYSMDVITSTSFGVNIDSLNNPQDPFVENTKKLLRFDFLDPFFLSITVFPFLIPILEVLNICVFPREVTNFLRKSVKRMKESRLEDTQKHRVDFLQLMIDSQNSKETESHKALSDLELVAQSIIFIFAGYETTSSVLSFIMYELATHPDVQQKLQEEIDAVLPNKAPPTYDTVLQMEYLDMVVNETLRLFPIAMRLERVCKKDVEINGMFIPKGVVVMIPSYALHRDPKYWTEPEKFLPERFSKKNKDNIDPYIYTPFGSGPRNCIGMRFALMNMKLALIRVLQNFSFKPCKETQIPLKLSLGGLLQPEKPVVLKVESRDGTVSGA
Method: as §1, §2, §3, §4, §5, §6, §7, §8, §9

[8] = cited from earlier work; remark: listed apart in the source
[9] = test system: human liver microsomes; experiment: AFB1 inhibition assays in HLM, both contributions combined; assay type: in vitro ADME
[10] = molecular target: T1, CYP1A2; experiment: AFB1 inhibition assay in HLM with α-naphthoflavone; assay type: in vitro ADME; parameters: tissue Corning; host or cells: human liver microsomes, UltraPool HLM 150, mixed gender
[11] = test system: CYP3A5; conditions: cited from earlier work
[12] = molecular target: T1, CYP1A2; parameters: tissue Corning; host or cells: human liver microsomes, UltraPool HLM 150, mixed gender; conditions: cited from earlier work
[13] = test system: CYP3A4/3A5; assay type: in vitro ADME, human
[14] = test system: CYP3A7; conditions: cited from earlier work
[15] = test system: CYP3A4; conditions: cited from earlier work
[16] = HLM pool of 16.0 donors, ref Kazmi, 2015

CCOc1ccc(NC(C)=O)cc1 [PH, phenacetin, reference compound]
CLH,B literature (in vivo human hepatic blood clearance) ([1]; ref Shibata et al. (2002)): 20.8 L/h | CLH,u,int (whole liver) [2, 16]: 92.00 L/h | CLint,in vitro [2, 16]: 23.3 µL/min/mg | CLint,in vitro ([2]; HLM pool of 105 donors, ref Gao et al., 2017): 14.5 µL/min/mg | Km [2]: 10 to 62 µM | Vmax ([3]; CYP1A2 bactosomes): 11.6 pmol/min/pmol P450 | microsomal CLint [4]: 21.4 µL/min/mg | Km [4]: 40 µM | CLH,p calculated (hepatic plasma clearance) ([5]; HLM, probe substrates, CLH,B x B:P): 21.9 L/h | CLH,B calculated (hepatic blood clearance, AAF corrected) ([5]; HLM, probe substrates, QH 90 L/h, Equation 9): 21.7 L/h | calculated CLH,B compared to literature ([5]; HLM, MDZ vs Kazmi, 2015, PH vs Shibata et al., 2002): ≤ 1.04 fold | CLH,u,int (whole liver) ([5]; HLM, MPPGL 40 mg/g, LW 1,650 g, Equation 4): 84.74 L/h

Cc1ncc2n1-c1ccc(Cl)cc1C(c1ccccc1F)=NC2 [MDZ, midazolam, reference compound]
fraction unbound [6]: 0.907 | CLH,p literature ([1]; ref Persson et al. (1987)): 29.0 L/h^d | CLH,u,int (whole liver) [2]: 2,700 L/h | microsomal CLint [4]: 445 µL/min/mg | Km [4]: 2.15 µM | CLH,B calculated (hepatic blood clearance, AAF corrected) ([5]; human, pH 7.4): 44.1 L/h | CLH,p calculated (hepatic plasma clearance) ([5]; human, pH 7.4): 26.6 L/h | CLH,u,int (whole liver) ([5]; human, pH 7.4): 1,941 L/h | calculated CLH,B compared to literature ([5]; human, pH 7.4): ≤ 1.00 fold | Km ([7]; human): 3.2 µM | Vmax ([7]; human, pH 7.4): 14.1 pmol/min/pmol P450

aflatoxin B1 [AFB1]
fu,B (free fraction in blood) [8]: 0.160^b | contribution ascribed to other enzymes, expectedly CYP2A13 [9]: 6.0% | sum of CYP3A4/5 and CYP1A2 contributions [9]: 94% | CYP1A2 contribution to AFB1 metabolism [10]: 49% | Vmax (AFBO or AFQ1 formation), range [2]: 236–11,281 pmol/(mg.min) | Km ([2]; read-out: Km (AFBO or AFQ1 formation), range): 90 to 1720 µM | CYP3A5 contribution [11]: 4–15% | CYP1A2 contribution [12]: 1–5% | contribution of CYP1A2 [12]: 95% | Km ([12]; read-out: Km for the AFBO formation via CYP1A2): 41 µM | Km ([12]; read-out: Km for the AFM1 formation via CYP1A2): 29 µM | CLH,B calculated (hepatic blood clearance, ISEF and AAF corrected) [3]: 56.1 L/h | CLH,B from EasyCYP bactosomes relative to CLH,B from HLM (CYP1A2) [3]: 1.46 fold | CLH,p calculated [3]: 57.8 L/h | CLH,u,int [3]: 1,295 L/h | CLH,u,int,AAF [3]: 932 L/h | Km [3]: 58.2 µM | Vmax,ISEF [3]: 14.7 nmol/mg/min | CYP3A4/5 contribution to AFB1 metabolism [13]: 45% | CYP3A7 contribution [14]: 5–7% | CLH,B calculated (hepatic blood clearance, AAF corrected), CYP3A4 [5]: 40.0 L/h and 40.0^CYP3A4 L/h | CLH,p calculated, CYP1A2 [5]: 39.6 L/h | CLH,p calculated, CYP3A4 [5]: 41.2 L/h | CLH,u,int (whole liver) [5]: 1,190 L/h | CLH,u,int (whole liver), CYP1A2 [5]: 583^CYP1A2 L/h | CLH,u,int (whole liver), CYP3A4 [5]: 535^CYP3A4 L/h | CLH,u,int,AAF [5]: 450^CYP3A4 L/h and 420^CYP1A2 L/h | Km [5]: 40.9 µM | CLint,in vitro ([5]; human): 282 µL/min/mg | CYP3A4 contribution [15]: 79–95% | Km ([15]; read-out: Km for the AFBO formation via CYP3A4): 133 µM | Km ([15]; read-out: Km for the AFM1 formation via CYP3A4): 139 µM | CLH,B calculated (hepatic blood clearance, ISEF and AAF corrected) [7]: 47.7 L/h | CLH,B from supersomes relative to CLH,B from HLM (CYP3A4) [7]: 1.19 fold | CLH,p calculated [7]: 49.1 L/h | CLH,u,int [7]: 755 L/h | CLH,u,int,AAF [7]: 634 L/h | Km [7]: 49.6 µM | Vmax,ISEF [7]: 5.97 nmol/mg/min | Vmax,ISEF (ISEF corrected Vmax) [7]: 43.6 pmol/min/pmol P450
